In this assay the target is GST-Bcl-2 (Homo sapiens (Human), UniProt P10415). Description: Time Resolved-Fluorescence Resonance Energy Transfer (TR-FRET) Bcl-2 binding assay. Conditions: GST-Bcl-2 1 nM, F-Bak peptide probe 100 nM, Tb-anti-GST antibody 1 nM; Ki by Wang's equation. An outline of the steps: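 Ki values derived from TR-FRET displacement of F-Bak peptide from GST-Bcl-2, detected with Tb-labelled anti-GST antibody (ex 340, em 520/495 nm). Compound dilution series started at 50 μM (2× starting concentration); room-temperature incubation 3 hours.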
For orientation: TR-FRET usually uses a lanthanide donor and a delayed reading to cut background.

The record followed here is patent US8952157B2, “Apoptosis-inducing agents for the treatment of cancer and immune and autoimmune diseases” (AbbVie Inc., priority 2008, dated 2015).

Sequence of GST-Bcl-2 (P10415 whole entry): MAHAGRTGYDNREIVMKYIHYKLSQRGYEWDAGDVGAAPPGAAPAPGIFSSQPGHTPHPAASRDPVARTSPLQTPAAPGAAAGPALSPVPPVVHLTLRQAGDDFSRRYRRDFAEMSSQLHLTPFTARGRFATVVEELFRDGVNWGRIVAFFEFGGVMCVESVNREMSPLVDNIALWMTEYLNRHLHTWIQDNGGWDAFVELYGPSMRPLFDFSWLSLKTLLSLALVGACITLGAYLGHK

`COc1cccc(Oc2cc(N3CCN(CC4=C(c5ccc(Cl)cc5)CC(C)(C)CC4)CC3)ccc2C(=O)NS(=O)(=O)c2ccc(NC3CCN(C)CC3)c([N+](=O)[O-])c2)c1` [Example 166, 4-(4-{[2-(4-chlorophenyl)-4,4-dimethylcyclohex-1-en-1-yl]methyl}piperazin-1-yl)-2-(3-methoxyphenoxy)-N-({4-[(1-methylpiperidin-4-yl)amino]-3-nitrophenyl}sulfonyl)benzamide] had a Ki of 0.082 nM.

`CC1(C)CCC(c2ccc(Cl)cc2)=C(CN2CCN(c3ccc(C(=O)NS(=O)(=O)c4ccc(NCC5CCOCC5)c([N+](=O)[O-])c4)c(Oc4cc5cc[nH]c5cc4F)c3)CC2)C1` [Example 262, 4-(4-{[2-(4-chlorophenyl)-5,5-dimethylcyclohex-1-en-1-yl]methyl}piperazin-1-yl)-2-[(6-fluoro-1H-indol-5-yl)oxy]-N-({3-nitro-4-[(tetrahydro-2H-pyran-4-ylmethyl)amino]phenyl}sulfonyl)benzamide]: the Ki came out at 0.276 nM. Compared with the last compound, the Ki is about 3.4-fold higher.

The compound `CN(C)CCCNc1ccc(S(=O)(=O)NC(=O)c2ccc(N3CCN(CC4=C(c5ccc(Cl)cc5)CC(C)(C)CC4)CC3)cc2Oc2ccc(F)cc2)cc1[N+](=O)[O-]` [Example 139, 4-(4-{[2-(4-chlorophenyl)-4,4-dimethylcyclohex-1-en-1-yl]methyl}piperazin-1-yl)-N-[(4-{[3-(dimethylamino)propyl]amino}-3-nitrophenyl)sulfonyl]-2-(4-fluorophenoxy)benzamide] had a Ki of 0.125 nM.

The compound `CC1(C)CCC(CN2CCN(c3ccc(C(=O)NS(=O)(=O)c4ccc(NCC5CCOCC5)c([N+](=O)[O-])c4)c(Oc4cnc(N)c(C(N)=O)c4)c3)CC2)=C(c2ccc(Cl)cc2)C1` [Example 351, 2-amino-5-(5-(4-{[2-(4-chlorophenyl)-4,4-dimethylcyclohex-1-en-1-yl]methyl}piperazin-1-yl)-2-{[({3-nitro-4-[(tetrahydro-2H-pyran-4-ylmethyl)amino]phenyl}sulfonyl)amino]carbonyl}phenoxy)nicotinamide] returned a Ki of 2.84 nM.

The compound `CC1(C)CCC(CN2CCN(c3ccc(C(=O)NS(=O)(=O)c4ccc(NC5CCN(Cc6ccsc6)CC5)c([N+](=O)[O-])c4)c(Oc4cccc(F)c4F)c3)CC2)=C(c2ccc(Cl)cc2)C1` [Example 136, 4-(4-{[2-(4-chlorophenyl)-4,4-dimethylcyclohex-1-en-1-yl]methyl}piperazin-1-yl)-2-(2,3-difluorophenoxy)-N-[(3-nitro-4-{[1-(thien-3-ylmethyl)piperidin-4-yl]amino}phenyl)sulfonyl]benzamide] had a Ki of 0.177 nM. This Ki is about 16-fold lower than that of the compound before.

`CC(=O)Nc1ccc(Oc2cc(N3CCN(CC4=C(c5ccc(Cl)cc5)CC(C)(C)CC4)CC3)ccc2C(=O)NS(=O)(=O)c2ccc(NCC3CCOCC3)c([N+](=O)[O-])c2)cn1` [Example 355, 2-{[6-(acetylamino)pyridin-3-yl]oxy}-4-(4-{[2-(4-chlorophenyl)-4,4-dimethylcyclohex-1-en-1-yl]methyl}piperazin-1-yl)-N-({3-nitro-4-[(tetrahydro-2H-pyran-4-ylmethyl)amino]phenyl}sulfonyl)benzamide] registered a Ki of 9.57 nM.

In turn, `Cc1nc2cc(Oc3cc(N4CCN(Cc5ccccc5-c5ccc(Cl)cc5)CC4)ccc3C(=O)NS(=O)(=O)c3ccc(NCCCN(C)C)c([N+](=O)[O-])c3)ccc2s1` [Example 25, 4-(4-((4′-chloro-1,1′-biphenyl-2-yl)methyl)piperazin-1-yl)-N-((4-((3-(dimethylamino)propyl)amino)-3-nitrophenyl)sulfonyl)-2-((2-methyl-1,3-benzothiazol-5-yl)oxy)benzamide] registered a Ki of 1.5 nM.

With `CC1(C)CCC(CN2CCN(c3ccc(C(=O)NS(=O)(=O)c4ccc(NC5CCN(C6CCOCC6)CC5)c([N+](=O)[O-])c4)c(Oc4cc5cc[nH]c5cc4C(F)(F)F)c3)CC2)=C(c2ccc(Cl)cc2)C1` [Example 218, 4-(4-{[2-(4-chlorophenyl)-4,4-dimethylcyclohex-1-en-1-yl]methyl}piperazin-1-yl)-N-({3-nitro-4-[(1-tetrahydro-2H-pyran-4-ylpiperidin-4-yl)amino]phenyl}sulfonyl)-2-{[6-(trifluoromethyl)-1H-indol-5-yl]oxy}benzamide], affinity was put at a Ki of 0.175 nM.

In turn, `CC1(C)CCC(CN2CCN(c3ccc(C(=O)NS(=O)(=O)c4ccc(NC5CCN(C6CCOCC6)CC5)c([N+](=O)[O-])c4)c(Oc4cc5cc[nH]c5c(F)c4F)c3)CC2)=C(c2ccc(Cl)cc2)C1` [Example 201, 4-(4-{[2-(4-chlorophenyl)-4,4-dimethylcyclohex-1-en-1-yl]methyl}piperazin-1-yl)-2-[(6,7-difluoro-1H-indol-5-yl)oxy]-N-({3-nitro-4-[(1-tetrahydro-2H-pyran-4-ylpiperidin-4-yl)amino]phenyl}sulfonyl)benzamide] had a Ki of 0.01 nM.

As to `CN(C)C(=O)COc1ccc(Oc2cc(N3CCN(Cc4ccccc4-c4ccc(Cl)cc4)CC3)ccc2C(=O)NS(=O)(=O)c2ccc(NCC3CCOCC3)c([N+](=O)[O-])c2)cc1` [Example 101, 4-(4-((4′-chloro-1,1′-biphenyl-2-yl)methyl)piperazin-1-yl)-2-(4-(2-(dimethylamino)-2-oxoethoxy)phenoxy)-N-((3-nitro-4-((tetrahydro-2H-pyran-4-ylmethyl)amino)phenyl)sulfonyl)benzamide], the Ki amounted to 670 nM.

In turn, `CC1(C)CCC(CN2CCN(c3ccc(C(=O)NS(=O)(=O)c4ccc(NCCCN5CCNC(=O)C5)c([N+](=O)[O-])c4)c(Oc4cc(F)cc5[nH]ccc45)c3)CC2)=C(c2ccc(Cl)cc2)C1` [Example 257, 4-(4-{[2-(4-chlorophenyl)-4,4-dimethylcyclohex-1-en-1-yl]methyl}piperazin-1-yl)-2-[(6-fluoro-1H-indol-4-yl)oxy]-N-[(3-nitro-4-{[3-(3-oxopiperazin-1-yl)propyl]amino}phenyl)sulfonyl]benzamide] returned a Ki of 0.097 nM.

`CN(C)CCc1ccccc1Oc1cc(N2CCN(Cc3ccccc3-c3ccc(Cl)cc3)CC2)ccc1C(=O)NS(=O)(=O)c1ccc(NCC2CCOCC2)c([N+](=O)[O-])c1` [Example 29, 4-(4-((4′-chloro-1,1′-biphenyl-2-yl)methyl)piperazin-1-yl)-2-(2-(2-(dimethylamino)ethyl)phenoxy)-N-((3-nitro-4-((tetrahydro-2H-pyran-4-ylmethyl)amino)phenyl)sulfonyl)benzamide] displayed a Ki of 0.903 nM.

`CC1(C)CC(c2ccc(Cl)cc2)=C(CN2CCN(c3ccc(C(=O)NS(=O)(=O)c4cnc(OCC5(F)CCOCC5)c(Cl)c4)c(Oc4cc5cc[nH]c5cc4F)c3)CC2)CO1` [Example 388, N-({5-chloro-6-[(4-fluorotetrahydro-2H-pyran-4-yl)methoxy]pyridin-3-yl}sulfonyl)-4-(4-{[4-(4-chlorophenyl)-6,6-dimethyl-5,6-dihydro-2H-pyran-3-yl]methyl}piperazin-1-yl)-2-[(6-fluoro-1H-indol-5-yl)oxy]benzamide] had a Ki of 0.02 nM.

Compound `CC1(C)CCC(CN2CCN(c3ccc(C(=O)NS(=O)(=O)c4ccc(NC5CCN(C6CC6)CC5)c([N+](=O)[O-])c4)c(Oc4ccccc4F)c3)CC2)=C(c2ccc(Cl)cc2)C1` [Example 123, 4-(4-{[2-(4-chlorophenyl)-4,4-dimethylcyclohex-1-en-1-yl]methyl}piperazin-1-yl)-N-({4-[(1-cyclopropylpiperidin-4-yl)amino]-3-nitrophenyl}sulfonyl)-2-(2-fluorophenoxy)benzamide] displayed a Ki of 0.11 nM.

What is called Ki is the dissociation constant of the complex between target and ligand, obtained from inhibition or displacement. A low value points to tighter binding.
